Where two headings read alike, the source gives them in different places. Bounds are passed on as bounds.

The values below come from patent US6043024A, “Use of one-dimensional nuclear magnetic resonance to identify ligands to target biomolecules” (Abbott Laboratories, priority 1997, dated 2000).

Assay [1] has as its target T1, FKBP (Homo sapiens, UniProt P62942). As to the kind of experiment: KD estimated from absence of observed chemical shift changes in 15N-HSQC spectra of FKBP. The class given is binding. The following applies: compounds 2-9; estimated from absence of chemical shift changes in 15N-HSQC spectra at compound concentrations of 1.0 mM. How it is done: (§1) Recombinant human FK binding protein (FKBP) was prepared as described in Logan et al., J. Mol. Biol., 236: 637-648 (1994).
from the absence of observed chemical shift changes in ^15 N--HSQC
spectra of FKBP at compound concentrations of 1.0 mM, as described in the […]

The target in assay [2] is T1, FKBP. The experiment in a line: Screening for binding using T2-filtered one-dimensional proton NMR spectroscopy. The note with it: FKBP 50 μM, spin-lock 200 ms, pH 6.5, 300K. How it is done: For all experiments, the T2 -filter spin-lock time was 200 ms with a spin-echo delay of 1 ms, the concentration of compound 1 was 100 μM, the concentration of FKBP was 50 μM, and the buffer was 50 mM PO4, 100 mM NaCl, pH 6.5 (95% D2 O).
For all experiments, the T2 -filter spin-lock time was 200 ms with a spin-echo delay of 1 ms, the concentration of all chemical compounds was 100 μM, the concentration of FKBP was 50 μM, and the buffer was 50 mM PO4, 100 mM NaCl, pH 6.5 (95% D2 O).
Recombinant human FK binding protein (FKBP) was prepared as described in Logan et al., J. Mol. Biol., 236: 637-648 (1994). […]
In FIG. 1A, a CPMG sequence with a spin-lock time of 200 ms is applied to the compound in the absence of FKBP. […] These differences can be detected either by direct inspection, or by a spectral differencing method in which the spectrum of […] (after the spin-lock, FIG. 1C) is subtracted from the spectrum of the compound in the presence of FKBP (also after the spin-lock, FIG. 1B), resulting in the spectrum shown in FIG. 1D. […]
(§2) All NMR spectra were recorded at 300K on a Bruker AMX500 NMR spectrometer. All spectra were recorded with 256 scans and a proton sweep width of 8333.3 Hz and a proton 90 degree pulse length of 7 μs. […] The NMR data were processed and analyzed on Silicon Graphics computers.

In assay [3] the target is T1, FKBP. As to the kind of experiment: Screening for binding using diffusion-filtered one-dimensional proton NMR spectroscopy. The following applies: FKBP 50 μM, gradients 3 and 48 Gauss/cm, diffusion delay 300 ms, pH 6.5, 300K. As to the method:
For all experiments, low and high gradient strengths correspond to 3 and 48 Gauss/cm, respectively. The high gradient strength was sufficient to eliminate the residual HDO signal in the sample. A diffusion delay time of 300 ms was used, the concentration of all chemical compounds was 100 μM, the concentration of FKBP was 50 μM, and the buffer was 50 mM PO4, 100 mM NaCl, pH 6.5 (95% D2 O).
For all experiments, low and high gradient strengths correspond to 3 and 48 Gauss/cm. respectively. The high gradient strength was sufficient to eliminate the residual HDO signal in the sample. A diffusion delay time of 300 ms was used, the concentration of all chemical compounds was 100 μM, the concentration of FKBP was 50 μM, and the buffer was […], 100 mM NaCl, pH 6.5 (95% D2 O).
as §1
The pulse sequence employed for exploiting the changes in diffusion rates of potential ligands in the presence of the target molecule that described by S. J. Gibbs and C. S. Johnson, Jr. J. Main. Reson. […]
as §2

The target of assay [4] is T1, FKBP. The following applies: cited from earlier work.
The mark [5] stands for this setting: mixture of compounds 1-9, each 100 μM.

T1 sequence (P62942 whole entry): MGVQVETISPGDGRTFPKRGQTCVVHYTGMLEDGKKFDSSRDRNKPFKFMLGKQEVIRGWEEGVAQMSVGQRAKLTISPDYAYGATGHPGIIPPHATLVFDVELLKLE

In the case of `OC(c1ccccc1)c1ccccc1` [Compound 4], the Kd on FKBP [1] was more than 10 mM.

For `O=c1oc2ccccc2c(O)c1-c1ccccc1` [Compound 9], at FKBP [1], the Kd was more than 10 mM.

`c1ccc(-c2ncc[nH]2)cc1` [Compound 1]: the “difference spectrum (FIG. 2E), T2-filtered, mixture of compounds 1-9” value at FKBP [2] (setting [5]) is recorded as “positive peaks which correspond to the positions of the reonances of compound 1 in the absence of FKBP”. Further, the “ligand signals after the spin lock time in the presence of FKBP” value at FKBP [2] (single compound, T2-filter, compound 100 μM) was “significantly reduced”. Further, at FKBP [3] (setting [5]), the “difference spectrum (FIG. 5E), diffusion-filtered, mixture of compounds 1-9” value is listed as “positive resonances at the chemical shifts for compound 1 in the absence of FKBP”. Moreover, the “ligand binding detected using diffusion filters (FIGS. 4A-4E)” value at FKBP [3] (single compound 100 μM) is reported as “demonstrated for FKBP binding to compound 1”. The Kd at FKBP [4] (compound 1, obtained from S. Shuker, et al., Science 274:1531-1534 (1996), read-out: KD) was 200 µM; at FKBP [4] (read-out: affinity (binds to FKBP)), 200 µM.

On to `O=C(O)c1ccc(-c2cccs2)s1` [Compound 8], for which, on FKBP [1], the Kd was more than 10 mM.

`Nc1cc(-c2ccco2)n[nH]1` [Compound 6]: the Kd at FKBP [1] was more than 10 mM.

Consider `COc1ccc(-c2ccc(C(=O)O)cc2)cc1` [Compound 7], for which the Kd on FKBP [1] is more than 10 mM.

In the case of `O=C1CCc2ccccc2O1` [Compound 2], the Kd at FKBP [1] was more than 10 mM.

As for `Oc1cccc(O)c1` [Compound 5], the Kd at FKBP [1] is more than 10 mM.

`COc1cccc(O)c1` [Compound 3]: on FKBP [1], the Kd was more than 10 mM.
